Test results published in patent US12428422B2, “Purine derivatives as SIK-3 inhibitors” (RHIZEN PHARMACEUTICALS AG, priority 2020, dated 2025).

Columns and labels:
Type in all cases: cell-based
mouse IL-10 mRNA = assay: IL-10 mRNA expression in LPS-stimulated mouse bone marrow derived macrophages (real-time PCR); conditions: LPS (1 μg/ml) stimulated mouse BMDM; 1 μM Compound M1 vs 1 μM dasatinib (FIG. 2C)
Experimental: (§1) Assay 2: Evaluation of mRNA Expression Levels of IL-10, TNFα, and Arginase-1 in LPS-Stimulated (1 μg/ml) Mouse Bone Marrow Derived Macrophages (BMDM).
(§2) Mouse-Bone Marrow Cell Isolation
(§3) • Femur bones from healthy mice were collected taking all aseptic precautions. • Bones were severed proximal to each joint using sterile scissors. • A 10 ml syringe with 25-G needle was filled with cold sterile wash medium (DMEM/F12 medium+10% FBS (fetal bovine serum)+1% Penicillin-streptomycin). • The needle was inserted into bone marrow cavity of femur and the cavity was flushed with 2-5 mL of wash medium, until the bone cavity appeared white. • Wash medium was collected in a 50 mL tube and centrifuged at 500×g for 10 minutes at room temperature. • Cells were resuspended in DMEM/F12 medium and cell count was taken. […]
(§4) Fold change in the mRNA expression was calculated by 2^−ΔΔCt method and data was plotted using GraphPad Prism.

TNFα mRNA = TNFα mRNA expression in LPS-stimulated mouse bone marrow derived macrophages (real-time PCR); conditions: LPS (1 μg/ml) stimulated mouse BMDM; 1 μM Compound M1 vs 1 μM dasatinib (FIG. 2A)
Experimental: as §1, §2, §3, §4

MV-4-11 cell lines = assay: MTT cell growth inhibition, single agent or combination, MV-4-11; conditions: combined with azacytidine or ventoclax, 72 hrs
Experimental: Assay 4: Compound M1 as a Single Agent or in Combination with Azacytidine, or Venetoclax was Determined in the AML Lines: THP-1, U937, and MV-4-11.
Day 0 • The cells were pelleted and counted. • Cells were plated at desired density (100 μl/well) in complete media in a 96-well plate in triplicates. A column for Day “0” reading was also seeded (18-20 hrs after initial plating and before addition of the inhibitors) • Plates were incubated at 37° C. and 5% CO2. Day 1 • 10 μl of MTT (5 mg/ml) were added to the column designated for Day “0”. It was mixed well and incubated at 37° C. and 5% CO2 for 3.5 h. Cells were pelleted down at 4000 rpm for 10 minutes. • Media was aspirated out and 150 μl of DMSO were added to the cells and mixed by pipetting to dissolve the crystals • Plate was read at A560 nm and A640 nm. […] Crystals were dissolved by repeated pipetting. • The plate was read at A560 nm and A640 nm. […]
Reference absorbance values were subtracted from test absorbance values. Day 0 values were subtracted from final day absorbance values for determining cell growth. Percent cell growth inhibitions were calculated.

OVCAr-3 cell lines = assay: MTT cell growth inhibition, combination with talzoparib, OVCAR-3; conditions: combined with talzoparib, 72 hrs
Experimental: Assay 5: Combination of Compound M1 with Standard Agents in Different Cell Lines
Day 0 • The cells were pelleted and counted. • Cells were plated at desired density (100 μl/well) in complete media in a 96-well plate in triplicates. A column for Day “0” reading was also seeded. (18-20 hrs after initial plating and before addition of the inhibitors) • Plates were incubated at 37° C. and 5% CO2. Day 1 • 10 μl of MTT (5 mg/ml) were added to the column designated for Day “0”. It was mixed well and incubated at 37° C. and 5% CO2 for 3.5 h. Cells were pelleted down at 4000 rpm for 10 minutes. • Media was aspirated out and 150 μl of DMSO were added to the cells and mixed by pipetting to dissolve the crystals • The plate was read at A560 nm and A640 nm. Day 2 • A series of dilutions of the inhibitors were initially made in 100% DMSO and further diluted in growth medium. • Cells were treated with either single agent of DMSO, compound M1, talzoparib, and combination of compound M1 and talzoparib (OVCAr-3 and SK-OV-3). […]
The plate was read at A560 nm and A640 nm.
Reference absorbance values were subtracted from test absorbance values. Day 0 values were subtracted from final day absorbance values for determining cell growth. % Cell growth inhibitions were calculated.

CC[C@H](Nc1ncnc2[nH]c(O)nc12)c1oc2ccccc2c(=O)c1-c1cccc(F)c1 [Compound M1, (S)-3-(3-fluorophenyl)-2-(1-((8-hydroxy-9H-purin-6-yl)amino)propyl)-4H-chromen-4-one]
mouse IL-10 mRNA expression, potency relative to dasatinib (mouse IL-10 mRNA): equally potent as dasatinib
TNFα mRNA expression, potency relative to dasatinib (TNFα mRNA): more potent than dasatinib
cell growth inhibition in combination (MV-4-11 cell lines): synergistic activity
cell growth inhibition in combination (OVCAr-3 cell lines): synergistic results
